Like-named read-outs stand apart in the source and are kept apart here.
Molecular target: BCL6 (Homo sapiens (Human), UniProt P41182)
Assay: Immunofluorescence high content imaging of BCL6 degradation in T47D cells
Type: cell-based
Conditions: for DC50: class symbols A-D, read-out: EC50 (nM)*
Experimental: Immunofluorescence Protocol for High Cotent Imaging of BCL6
T47D cells were seeded in 100 μl volume of RPMI1640-10% FBS in a 96-well black/clear bottom plates for adherent lines (Corning #3904).
Day 1. T47D breast cancer epithelial cells were seeded at a density so that confluence is ˜70-90% at endpoint. Cells were seeded at 7K/0.1 ml/well the morning prior to the addition of exemplary bifunctional degradation compounds.
Day 2. Prepare an 11 point 3-fold serial dilution of exemplary bifunctional compound in DMSO and aliquot an appropriate volume to cell growth media to generate a 2× final concentration of exemplary bifunctional compound. Add an equal volume (0.1 ml) of 2× exemplary bifunctional compound/media mix to previously plated cells, for a final top concentration in aqueous cell growth media of 0.1 or 1 μM. Incubate for 3 days at 37° C., 5% CO2.
Day 5 Immunofluorescence. Discard cell media. Wash wells with 200 μl of room temperature phosphate-buffered saline (PBS). Prepared 4% paraformaldehyde (PFA) from 16% PFA (Electron Microscopy Sciences #15710) using 1×PBS. Fifty μl of 4% PF was added to each well and incubate for 15 minutes at room temperature to fix the cells. The PFA was aspirated and the cells washed twice with PBS (200 μl)).
Prepared 0.1% Triton X-100 in PBS using 10% triton X-100 stock. The cells were permeabilized by adding 100 ul of the 0.1% Triton X-100 in PBS to each well to permeabilize cells and incubating at room temperature for 15 minutes. Cells were washed twice with PBS.
Prepared 3% BSA/PBS (from Thermofisher #37515 Blocker BSA in TBS, 10%), and 100 ul was added to each well. The cells were incubated for at least 1 hour at room temperature.
Prepared 1% BSA/PBS using Blocker BSA/PBS, and the 3% BSA/PBS removed from the wells.
For no primary antibody controls, 50 μl 1% BSA/PBS was added.
Primary antibody (BCL6 Rb Ab, CST-14895, Cell Signaling) was diluted 1:300 in 1% BSA/PBS using Blocker BSA/PBS.
Fifty μl of primary antibody added to all remaining wells (i.e., all wells other than the primary antibody controls) and the cells were incubated overnight at 4° C. with slow orbital movement.
Day 6. Contents of the wells was removed and the cells washed four times with 200 ul PBS. 1% BSA/PBS was prepared using Blocker BSA in PBS.
Diluted secondary antibody goat anti-Rb IgG Alexa-488 1:1000, and cell mask-Alexa-647 1:3000 in 1% BSA/PBS in the same mix. Add 50 μl to each well and incubate at room temperature for 1 hour in the dark.
Cells were washed three times with 200 ul PBS, and then incubated for 10 minutes with 100 ul Hoechst dye at 1 μg/mL (20 mM stock) to stain cell nuclei. Wells were then washed with 200 μl PBS, and 100 ul of PBS was added to each well and the plate covered plate with a plastic opaque cover. Plates were stored at 4° C. and covered in aluminum foil until imaged.
Plates were equilibrated to room temperature prior to reading. The bottom of the plate was wiped with 70% isopropanol immediately prior to imaging.
10×, 4 fields/well, include Top hat smoothing in the analysis protocol.

CNC(=O)COc1cc2cc(Nc3nc(N4CCC(O[C@H]5C[C@H](N6CCC(c7cccc8c7C(=O)N(C7CCC(=O)NC7=O)C8=O)CC6)C5)CC4)ncc3Cl)ccc2n(C(C)C)c1=O (stereo partly shown) [compound 409, 2-({6-[(5-chloro-2-{4-[(1r,3r)-3-{4-[2-(2,6-dioxopiperidin-3-yl)-1,3-dioxo-2,3-dihydro-1H-isoindol-4-yl]piperidin-1-yl}cyclobutoxy]piperidin-1-yl}pyrimidin-4-yl)amino]-2-oxo-1-(propan-2-yl)-1,2-dihydroquinolin-3-yl}oxy)-N-methylacetamide]
Dmax (T47D cells): 50 to 70%
IC50 (T47D cells): < 10 nM

CNC(=O)COc1cc2cc(Nc3nc(N4CCC(CN5[C@H](C)CN(c6ccc(C(=O)NC7CCC(=O)NC7=O)c(F)c6)C[C@@H]5C)CC4)ncc3Cl)ccc2n(C)c1=O (stereo partly drawn) [compound 288, 4-[(3R,5S)-4-({1-[5-chloro-4-({1-methyl-3-[(methylcarbamoyl)methoxy]-2-oxo-1,2-dihydroquinolin-6-yl}amino)pyrimidin-2-yl]piperidin-4-yl}methyl)-3,5-dimethylpiperazin-1-yl]-N-(2,6-dioxopiperidin-3-yl)-2-fluorobenzamide]
IC50: 50 to 100 nM
Dmax (T47D): 50 to 70%

CNC(=O)COc1cc2cc(Nc3nc(N4CCC(CN5CC6(CCN(c7ccc(C(=O)NC8CCC(=O)NC8=O)c(OC)c7)CC6)C5)CC4)ncc3Cl)ccc2n(C(C)C)c1=O (stereo not shown) [compound 438, 4-[2-({1-[5-chloro-4-({3-[(methylcarbamoyl)methoxy]-2-oxo-1-(propan-2-yl)-1,2-dihydroquinolin-6-yl}amino)pyrimidin-2-yl]piperidin-4-yl}methyl)-2,7-diazaspiro[3.5]nonan-7-yl]-N-(2,6-dioxopiperidin-3-yl)-2-methoxybenzamide]
Dmax (T47D cells): ≥ 70%
IC50 (T47D cells): 10 to 50 nM

CNC(=O)COc1cc2cc(Nc3nc(N4CCN(CC5CN(c6ccc7c(c6)C(=O)N(C6CCC(=O)NC6=O)C7=O)C5)CC4)ncc3Cl)ccc2n(C)c1=O (stereo not shown) [compound 246, 2-((6-((5-chloro-2-(4-((1-(2-(2,6-dioxopiperidin-3-yl)-1,3-dioxoisoindolin-5-yl)azetidin-3-yl)methyl)piperazin-1-yl)pyrimidin-4-yl)amino)-1-methyl-2-oxo-1,2-dihydroquinolin-3-yl)oxy)-N-methylacetamide]
IC50: < 10 nM
Dmax (T47D): ≥ 70%

CNC(=O)COc1cc2cc(Nc3nc(N4CCC(c5ccc(OCCCOCCOCCOc6ccc7c(c6)CN(C6CCC(=O)NC6=O)C7=O)cc5)CC4)ncc3Cl)ccc2n(C)c1=O (stereo not shown) [compound 89, 2-((6-((5-chloro-2-(4-(4-(3-(2-(2-((2-(2,6-dioxopiperidin-3-yl)-1-oxoisoindolin-5-yl)oxy)ethoxy)ethoxy)propoxy)phenyl)piperidin-1-yl)pyrimidin-4-yl)amino)-1-methyl-2-oxo-1,2-dihydroquinolin-3-yl)oxy)-N-methylacetamide]
DC50: > 100 nM

CCCN(C1CCN(c2ccc3c(c2)C(=O)N(C2CCC(=O)NC2=O)C3=O)CC1)C1CCN(c2ncc(Cl)c(Nc3ccc4c(c3)cc(OCC(=O)NC)c(=O)n4C)n2)CC1 (stereo not shown) [compound 327, 2-{[6-({5-chloro-2-[4-({1-[2-(2,6-dioxopiperidin-3-yl)-1,3-dioxo-2,3-dihydro-1H-isoindol-5-yl]piperidin-4-yl}(propyl)amino)piperidin-1-yl]pyrimidin-4-yl}amino)-1-methyl-2-oxo-1,2-dihydroquinolin-3-yl]oxy}-N-methylacetamide]
Dmax (T47D cells): 50 to 70%
IC50 (T47D cells): 10 to 50 nM

CNC(=O)COc1cc2cc(Nc3nc(N4CCC(OCCOCCOCCOCCOCCOc5cc(-c6scnc6C)ccc5CNC(=O)[C@@H]5C[C@@H](O)CN5C(=O)C(c5cc(C)no5)C(C)C)CC4)ncc3Cl)ccc2n(C)c1=O (stereo partly shown) [compound 55]
DC50: > 100 nM

CCn1c(=O)c(OCC(=O)NC)cc2cc(Nc3nc(N4CCC(OCC5CCN(c6cccc7c6C(=O)N(C6CCC(=O)NC6=O)C7=O)CC5)CC4)ncc3Cl)ccc21 (stereo not shown) [compound 330, 2-{[6-({5-chloro-2-[4-({1-[2-(2,6-dioxopiperidin-3-yl)-1,3-dioxo-2,3-dihydro-1H-isoindol-4-yl]piperidin-4-yl}methoxy)piperidin-1-yl]pyrimidin-4-yl}amino)-1-ethyl-2-oxo-1,2-dihydroquinolin-3-yl]oxy}-N-methylacetamide]
Dmax (T47D cells): 50 to 70%
IC50 (T47D cells): < 10 nM

CCn1c(=O)c(OCC(=O)NC)cc2cc(Nc3nc(N4CCN([C@@H]5C[C@@H](COc6ccc7c(c6)C(=O)N(C6CCC(=O)NC6=O)C7=O)N(C)C5)CC4)ncc3Cl)ccc21 (stereo partly drawn) [compound 357, 2-({6-[(5-chloro-2-{4-[(3R,5S)-5-({[2-(2,6-dioxopiperidin-3-yl)-1,3-dioxo-2,3-dihydro-1H-isoindol-5-yl]oxy}methyl)-1-methylpyrrolidin-3-yl]piperazin-1-yl}pyrimidin-4-yl)amino]-1-ethyl-2-oxo-1,2-dihydroquinolin-3-yl}oxy)-N-methylacetamide]
Dmax (T47D cells): < 50%
IC50 (T47D cells): 50 to 100 nM

CNC(=O)COc1cc2cc(Nc3nc(N4CCN(CC5CCN(C(=O)c6ccc(N7CCC(=O)NC7=O)cc6)CC5)CC4)ncc3Cl)ccc2n(C(C)C)c1=O [compound 402, 2-{[6-({5-chloro-2-[4-({1-[4-(2,4-dioxo-1,3-diazinan-1-yl)benzoyl]piperidin-4-yl}methyl)piperazin-1-yl]pyrimidin-4-yl}amino)-2-oxo-1-(propan-2-yl)-1,2-dihydroquinolin-3-yl]oxy}-N-methylacetamide]
IC50 (T47D cells): ≥ 100 nM

CNC(=O)COc1cc2cc(Nc3nc(N4CCC(OC5CC6(C5)CN(c5ccc7c(c5)CN(C5CCC(=O)NC5=O)C7=O)C6)CC4)ncc3Cl)ccc2n(C(C)C)c1=O (stereo not shown) [compound 412, 2-{[6-({5-chloro-2-[4-({2-[2-(2,6-dioxopiperidin-3-yl)-1-oxo-2,3-dihydro-1H-isoindol-5-yl]-2-azaspiro[3.3]heptan-6-yl}oxy)piperidin-1-yl]pyrimidin-4-yl}amino)-2-oxo-1-(propan-2-yl)-1,2-dihydroquinolin-3-yl]oxy}-N-methylacetamide]
Dmax (T47D cells): ≥ 70%
IC50 (T47D cells): < 10 nM

CCCn1c(=O)c(OCC(=O)NC)cc2cc(Nc3nc(N4CCC[C@H](COc5cccc6c5C(=O)N(C5CCC(=O)NC5=O)C6=O)C4)ncc3Cl)ccc21 (stereo partly drawn) [compound 318, 2-{[6-({5-chloro-2-[(3S)-3-({[2-(2,6-dioxopiperidin-3-yl)-1,3-dioxo-2,3-dihydro-1H-isoindol-4-yl]oxy}methyl)piperidin-1-yl]pyrimidin-4-yl}amino)-2-oxo-1-propyl-1,2-dihydroquinolin-3-yl]oxy}-N-methylacetamide]
Dmax (T47D cells): 50 to 70%
IC50 (T47D cells): 50 to 100 nM

CC(=O)COc1cc2cc(Nc3nc(C#CC4CCCN(c5ccc6c(c5)C(=O)N(C5CCC(=O)NC5=O)C6=O)C4)ncc3Cl)ccc2n(C)c1=O (stereo not shown) [compound 181, 5-(3-((5-chloro-4-((1-methyl-2-oxo-3-(2-oxopropoxy)-1,2-dihydroquinolin-6-yl)amino)pyrimidin-2-yl)ethynyl)piperidin-1-yl)-2-(2,6-dioxopiperidin-3-yl)isoindoline-1,3-dione]
IC50: ≥ 100 nM

CNC(=O)COc1cc2cc(Nc3nc(N4CCC(CN5[C@H](C)CN(c6ccc(C(=O)NC7CCC(=O)NC7=O)c(OC)c6)C[C@@H]5C)CC4)ncc3Cl)ccc2n(C)c1=O (stereo partly drawn) [compound 347, 4-[(3R,5S)-4-({1-[5-chloro-4-({1-methyl-3-[(methylcarbamoyl)methoxy]-2-oxo-1,2-dihydroquinolin-6-yl}amino)pyrimidin-2-yl]piperidin-4-yl}methyl)-3,5-dimethylpiperazin-1-yl]-N-(2,6-dioxopiperidin-3-yl)-2-methoxybenzamide]
Dmax (T47D cells): 50 to 70%
IC50 (T47D cells): < 10 nM

CNC(=O)COc1cc2cc(Nc3nc(N4CCC(OCCCOCCCOc5ccc6c(c5)CN(C5CCC(=O)NC5=O)C6=O)CC4)ncc3Cl)ccc2n(C)c1=O (stereo not shown) [compound 140, 2-((6-((5-chloro-2-(4-(3-(3-((2-(2,6-dioxopiperidin-3-yl)-1-oxoisoindolin-5-yl)oxy)propoxy)propoxy)piperidin-1-yl)pyrimidin-4-yl)amino)-1-methyl-2-oxo-1,2-dihydroquinolin-3-yl)oxy)-N-methylacetamide]
DC50: > 100 nM
